# Test results: patent publication US8440830B2, “Tetrahydro-fused pyridines as histone deacetylase inhibitors” (4SC AG, priority 2007, dated 2013)
# System: A549 NSCLC cells
# Experiment: Cellular cytotoxicity assay (Alamar Blue), A549
# Type: cell-based
# Conditions: Homo sapiens, 72 h, upper end given as ≧100, read-out: IC50 (μM), cytotoxicity towards A549 NSCLC cells
# In short: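 Resazurin-to-resorufin fluorescence (ex 544, em 590 nm, after 4 h) gave viability as % of untreated cells following 72 h compound exposure at 37 °C. Compounds were added in semi-logarithmic dilutions 24 h post-seeding, quadruplicate wells; IC50 fitted by non-linear regression of concentration-effect curves.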
row,Structure (SMILES),IC50 [µM]
1,"COc1ccc(N=C(NC#N)N2CCc3nc(C(=O)Nc4cc(C(C)C)ccc4N)sc3C2)cc1 [Example 125, N-(2-amino-5-isopropylphenyl)-5-{(cyanoamino)[(4-methoxyphenyl)-imino]methyl}-4,5,6,7-tetrahydro[1,3]thiazolo[5,4-c]pyridine-2-carboxamide]",≥ 0.2
2,"CC(=Nc1ccccc1)N1CCc2nc(C(=O)Nc3ccccc3N)sc2C1 [Example 126, N-(2-aminophenyl)-5-[N-phenylethanimidoyl]-4,5,6,7-tetrahydro[1,3]thiazolo[5,4-c]pyridine-2-carboxamide]",≥ 0.2
3,"COc1ccc(N=C(C)N2CCc3nc(C(=O)Nc4ccccc4N)sc3C2)cc1OC [Example 127, N-(2-aminophenyl)-5-[N-(3,4-dimethoxyphenyl)ethanimidoyl]-4,5,6,7 tetrahydro[1,3]thiazolo[5,4-c]pyridine-2-carboxamide]",≥ 0.2
4,"COc1ccc(N=C(C)N2CCc3nc(C(=O)Nc4ccccc4N)sc3C2)cc1 [Example 128, N-(2-aminophenyl)-5-[N-(4-methoxyphenyl)ethanimidoyl]-4,5,6,7-tetrahydro[1,3]thiazolo[5,4-c]pyridine-2-carboxamide]",≥ 0.2
5,"COc1ccc(N)c(NC(=O)c2nc3c(s2)CN(C(C)=Nc2ccccc2)CC3)c1 [Example 129, N-(2-amino-5-methoxyphenyl)-5-[N-phenylethanimidoyl]-4,5,6,7-tetrahydro[1,3]thiazolo[5,4-c]pyridine-2-carboxamide]",≥ 0.2
6,"COc1ccc(N=C(C)N2CCc3nc(C(=O)Nc4cc(OC)ccc4N)sc3C2)cc1 [Example 130, N-(2-amino-5-methoxyphenyl)-5-[N-(4-methoxyphenyl)ethanimidoyl]-4,5,6,7-tetrahydro[1,3]thiazolo[5,4-c]pyridine-2-carboxamide]",≥ 0.2
7,"COc1ccc(N)c(NC(=O)c2nc3c(s2)CN(C(C)=Nc2ccc(OC)c(OC)c2)CC3)c1 [Example 131, N-(2-amino-5-methoxyphenyl)-5-[N-(3,4-dimethoxyphenyl)ethanimidoyl]-4,5,6,7-tetrahydro[1,3]thiazolo[5,4-c]pyridine-2-carboxamide]",≥ 0.2
8,"COc1ccc(N=C(C)N2CCc3nc(C(=O)Nc4cc(C(C)C)ccc4N)sc3C2)cc1 [Example 132, N-(2-amino-5-isopropylphenyl)-5-[N-(4-methoxyphenyl)ethanimidoyl]-4,5,6,7-tetrahydro[1,3]thiazolo[5,4-c]pyridine-2-carboxamide]",≥ 0.2
9,"COc1ccc(N=C(C)N2CCc3nc(C(=O)Nc4cc(C(C)C)ccc4N)sc3C2)cc1OC [Example 133, N-(2-amino-5-isopropylphenyl)-5-[N-(3,4-dimethoxyphenyl)ethanimidoyl]-4,5,6,7-tetrahydro[1,3]thiazolo[5,4-c]pyridine-2-carboxamide]",≥ 0.2
10,"CC(=Nc1ccc(N(C)C)cc1)N1CCc2nc(C(=O)Nc3ccccc3N)sc2C1 [Example 134, N-(2-aminophenyl)-5-{N-[4-(dimethylamino)phenyl]ethanimidoyl}-4,5,6,7-tetrahydro[1,3]thiazolo[5,4-c]pyridine-2-carboxamide]",≥ 0.2
11,"CC(=Nc1ccccc1)N1CCc2nc(C(=O)Nc3cc(C(C)C)ccc3N)sc2C1 [Example 135, N-(2-amino-5-isopropylphenyl)-5-[N-phenylethanimidoyl]-4,5,6,7-tetrahydro[1,3]thiazolo[5,4-c]pyridine-2-carboxamide]",≥ 0.2
12,"Nc1ccccc1NC(=O)c1nc2c(s1)CN(C(=C[N+](=O)[O-])Nc1ccccc1)CC2 [Example 136, N-(2-aminophenyl)-5-[1-anilino-2-nitroyinyl]-4,5,6,7-tetrahydro[1,3]thiazolo[5,4-c]pyridine-2-carboxamide]",≥ 0.2
13,"COc1ccc(NC(=C[N+](=O)[O-])N2CCc3nc(C(=O)Nc4ccccc4N)sc3C2)cc1 [Example 137, N-(2-aminophenyl)-5-{1-[(4-methoxyphenyl)amino]-2-nitroyinyl}-4,5,6,7-tetrahydro[1,3]thiazolo[5,4-c]pyridine-2-carboxamide]",≥ 0.2
14,"CCCCNC(=C[N+](=O)[O-])N1CCc2nc(C(=O)Nc3ccccc3N)sc2C1 [Example 138, N-(2-aminophenyl)-5-[1-(butylamino)-2-nitrovinyl]-4,5,6,7-tetrahydro[1,3]thiazolo[5,4-c]pyridine-2-carboxamide]",≥ 0.2
15,"CC(C)c1ccc(NC(=C[N+](=O)[O-])N2CCc3nc(C(=O)Nc4ccccc4N)sc3C2)cc1 [Example 139, N-(2-aminophenyl)-5-{1-[(4-isopropylphenyl)amino]-2-nitrovinyl}-4,5,6,7-tetrahydro[1,3]thiazolo[5,4-c]pyridine-2-carboxamide]",≥ 0.2
16,"CN(C)c1ccc(NC(=C[N+](=O)[O-])N2CCc3nc(C(=O)Nc4ccccc4N)sc3C2)cc1 [Example 140, N-(2-aminophenyl)-5-[1-{[4-(dimethylamino)phenyl]amino}-2-nitrovinyl]-4,5,6,7-tetrahydro[1,3]thiazolo[5,4-c]pyridine-2-carboxamide]",≥ 0.2
17,"COc1ccc(NC(=C[N+](=O)[O-])N2CCc3nc(C(=O)Nc4ccccc4N)sc3C2)cc1OC [Example 141, N-(2-aminophenyl)-5-{1-[(3,4-dimethoxyphenyl)amino]-2-nitrovinyl}-4,5,6,7-tetrahydro[1,3]thiazolo[5,4-c]pyridine-2-carboxamide]",≥ 0.2
18,"COc1ccc(NC(=C[N+](=O)[O-])N2CCc3nc(C(=O)Nc4cc(OC)ccc4N)sc3C2)cc1 [Example 142, N-(2-amino-5-methoxyphenyl)-5-{1-[(4-methoxyphenyl)amino]-2-nitrovinyl}-4,5,6,7-tetrahydro[1,3]thiazolo[5,4-c]pyridine-2-carboxamide]",≥ 0.2
19,"COc1ccc(N)c(NC(=O)c2nc3c(s2)CN(C(=C[N+](=O)[O-])Nc2ccc(C(C)C)cc2)CC3)c1 [Example 143, N-(2-amino-5-methoxyphenyl)-5-{1-[(4-isopropylphenyl)amino]-2-nitrovinyl}-4,5,6,7-tetrahydro[1,3]thiazolo[5,4-c]pyridine-2-carboxamide]",≥ 0.2
20,"COc1ccc(N)c(NC(=O)c2nc3c(s2)CN(C(=C[N+](=O)[O-])Nc2ccc(N(C)C)cc2)CC3)c1 [Example 144, N-(2-amino-5-methoxyphenyl)-5-[1-{[4-(dimethylamino)phenyl]amino}-2-nitrovinyl]-4,5,6,7-tetrahydro[1,3]thiazolo[5,4-c]pyridine-2-carboxamide]",≥ 0.2
21,"CC(C)c1ccc(N)c(NC(=O)c2nc3c(s2)CN(C(=C[N+](=O)[O-])Nc2ccccc2)CC3)c1 [Example 145, N-(2-amino-5-isopropylphenyl)-5-[1-anilino-2-nitrovinyl]-4,5,6,7-tetrahydro[1,3]thiazolo[5,4-c]pyridine-2-carboxamide]",≥ 0.2
22,"COc1ccc(NC(=C[N+](=O)[O-])N2CCc3nc(C(=O)Nc4cc(C(C)C)ccc4N)sc3C2)cc1 [Example 146, N-[2-amino-5-(1-methylethyl)phenyl]-5-{1-[(4-methoxyphenyl)amino]-2-nitroethenyl}-4,5,6,7-tetrahydro[1,3]thiazolo[5,4-c]pyridine-2-carboxamide]",≥ 0.2
